Test results reported in patent publication US7919101B2 (priority 2008, dated 2011).
Read-outs that look alike come from different tables or passages of the source. Residues, ends and D or L forms follow the SMILES beside them.

Legend:
[1] = tested on: HIV-1 NL4-3D36G; test: Inhibition of infection by T-20-sensitive strain NL4-3D36G; type: cell-based; details: for Dose reduction: NL4-3D36G
Method: (§1) 2. Inhibition of HIV infection as measured by luciferase assay. The inhibitory activity of fusion/entry inhibitors on HIV infection in TZM-bl cells was determined by using a luciferase assay (Wei X et al. Antimicrob. Agents Chemother. 46:1896-1905, 2002). Briefly, 50 μl of a compound at graded concentration in triplicate were incubated with an equal volume of an HIV-1 isolate at 0.01 multiplicity of infection (MOI) at 37° C. for 30 min, followed by addition of the mixture to 100 μl TZM-bl cells (1×10^5/ml) that were pre-cultured in a 96-well plate at 37° C. overnight. After further culture at 37° C. for 3 days, the cells were harvested and lyzed with 50 μl lysing reagent. The luciferase activity was analyzed using a luciferase kit (Promega Corp.) and a luminometer (Model: Ultra […], Tecan) according to the manufacture's instruction. The percent inhibition of cell fusion by a compound as well as EC50 and EC90 values were calculated using the software CalcuSyn.
(§2) 3. Inhibition of HIV replication as measured by p24 antigen production. The inhibitory activity of fusion/entry inhibitors on HIV-1 infection as measured by p24 antigen production was determined as previously described (Zhao Q et al. AIDS Res Hum Retroviruses 18:989-997, 2002). In brief, 1×10^4 MT-2 cells were infected with an HIV-1 strain (100 TCID50) in 200 μl RPMI 1640 medium containing 10% FBS in the presence or absence of testing compounds at graded concentrations overnight. Then the culture supernatants were removed and fresh media containing no testing compounds were added. On the fourth day post-infection, 100 μl of culture supernatants were collected from each well, mixed with equal volumes of 5% Triton X-100 and assayed for p24 antigen, which was quantitated by ELISA. Briefly, wells of polystyrene plates were coated with HIV immunoglobulin (HIVIG, prepared from plasma of HIV-seropositive donors with high neutralizing titers against HIV-1IIIB), in 0.085 M carbonate-bicarbonate buffer (pH 9.6) at 4° C. overnight, followed by washes with washing buffer (0.01 M PBS containing 0.05% Tween-20) and blocking with PBS containing 1% dry fat-free milk. Virus lysates were added to the wells and incubated at 37° C. for 1 hr. […] Reactions were terminated by addition of 1N H2SO4. Absorbance at 450 nm was recorded in an ELISA reader (Ultra 384, TECAN). Recombinant protein p24, purchased from US Biological, was included for establishing standard dose response curves. Each sample was tested in triplicate. The percentage of inhibition of p24 production was calculated as previously described (Neurath A R et al. BMC Infect Dis 2:6, 2002).
(§3) 4. Synergy analysis. […] In all analyses, HIV fusion/entry inhibitors were assumed to act noncompetitively, which led to a more conservative estimate of synergy. CI values<1 and >1 indicate synergy and antagonism, respectively. Dose reductions were calculated as the compound concentrations required for inhibition of HIV-1 replication when the compound was used alone and in combination. The statistic analysis was performed by the One-Way Analysis of Variance (One-Way ANOVA) method using Origin 6.1 software.

[2] = tested on: HIV-1 BaL (subtype B, R5)
Method: as §1, §2, §3

[3] = tested on: HIV-1 IIIB (subtype B, X4)
Method: as §1, §2, §3

[4] = tested on: HIV-1 NL4-3(36G)V38A/N42D
Method: as §1, §2, §3

[5] = tested on: HIV-1 NL4-3(36G)V38A
Method: as §1, §2, §3

[6] = tested on: HIV-1 NL4-3(36G)V38E/N42S
Method: as §1, §2, §3

[7] = target: gp41 six-helix bundle formation between N46 and C34-biotin (Human immunodeficiency virus type 1 group M subtype B, UniProt P04578); type: biochemical, HIV-1; details: triple combination of T-20, T-1249 and T-1144
Method: 6. Enzyme-linked Immunosorbent Assay (ELISA). […] The plate was then incubated for 30 min and added to horseradish peroxidase (HRP) labeled with streptavidin (SA-HRP) (ZYMED Laboratories). The plate was washed with the washing buffer (PBS containing 0.01% Tween 20) for 6 times to remove any unbound peptide. The substrate TMB was added sequentially. Absorbance at 450 nm (A450) was measured using an ELISA reader.

[8] = tested on: viruses that are resistant to T-20; details: viruses resistant to T-20; cited from earlier work
[9] = read-out: EC50 alone, Bal (B, R5), peptide alone
[10] = IIIB, T-20+T-1249+T-1144 16:4:1
[11] = IIIB, T-20 combined with T-1144
[12] = read-out: EC50 alone, IIIB (B, X4), peptide alone
[13] = read-out: EC50 alone, peptide alone
[14] = read-out: EC50 in mixture, T-20+T-1249+T-1144 80:1:1
[15] = read-out: EC50 in mixture, T-20 combined with T-1144, ratios 80:1:1
[16] = read-out: EC50 in mixture, T-20 combined with T-1249, ratios 80:1:1

gp41 six-helix bundle formation between N46 and C34-biotin, sequence (P04578 536-581): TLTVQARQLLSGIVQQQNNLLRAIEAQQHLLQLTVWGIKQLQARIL

## CC[C@H](C)[C@H](NC(=O)[C@H](C)NC(=O)[C@H](CCCNC(=N)N)NC(=O)[C@H](CC(=O)O)NC(=O)[C@H](Cc1c[nH]c2ccccc12)NC(=O)[C@H](C)NC(=O)[C@H](CCC(=O)O)NC(=O)[C@H](Cc1c[nH]c2ccccc12)NC(=O)[C@@H](NC(=O)[C@@H](NC(C)=O)[C@@H](C)O)[C@@H](C)O)C(=O)N[C@@H](C)C(=O)N[C@@H](CCC(=O)O)C(=O)N[C@@H](Cc1ccc(O)cc1)C(=O)N[C@@H](C)C(=O)N[C@@H](C)C(=O)N[C@@H](CCCNC(=N)N)C(=O)N[C@H](C(=O)N[C@@H](CCC(=O)O)C(=O)N[C@@H](C)C(=O)N[C@@H](CC(C)C)C(=O)N[C@@H](CC(C)C)C(=O)N[C@@H](CCCNC(=N)N)C(=O)N[C@@H](C)C(=O)N[C@@H](CC(C)C)C(=O)N[C@@H](CCC(N)=O)C(=O)N[C@@H](CCC(=O)O)C(=O)N[C@@H](CCC(N)=O)C(=O)N[C@@H](CCC(N)=O)C(=O)N[C@@H](CCC(=O)O)C(=O)N[C@@H](CCCCN)C(=O)N[C@@H](CC(N)=O)C(=O)N[C@@H](CCC(=O)O)C(=O)N[C@@H](C)C(=O)N[C@@H](C)C(=O)N[C@@H](CC(C)C)C(=O)N[C@@H](CCCNC(=N)N)C(=O)N[C@@H](CCC(=O)O)C(=O)N[C@@H](CC(C)C)C(N)=O)[C@@H](C)CC [T-1144] (Ac-TTWEAWDRAIAEYAARIEALLRALQEQQEKNEAALREL-NH2; N-terminus and C-terminus assumed)
[1]; NL4-3D36G (T-20-sensitive), peptide alone
  EC50: 5.85 nM
[1]; T-20+T-1249+T-1144 7:5:1
  Dose reduction: 15.81 fold
[1]; T-20 combined with T-1144
  Dose reduction: 13.00 fold
[2]; Bal, T-20+T-1249+T-1144 2:1:1
  Dose reduction: 209.00 fold
[2]; Bal, T-20 combined with T-1144
  Dose reduction: 19.90 fold
[2]; [9]
  EC50: 4.18 nM
[3]; [10]
  Dose reduction: 99.00 fold
[3]; [11]
  Dose reduction: 7.98 fold
[3]; [12]
  EC50: 4.95 nM
[4]; T-20+T-1249+T-1144 80:1:1
  Dose reduction: 9.33 fold
[4]; T-20 combined with T-1144
  Dose reduction: 1.82 fold
[4]; [13]
  EC50: 4.57 nM
[5]; T-20+T-1249+T-1144 80:1:1
  Dose reduction: 37.60 fold
[5]; T-20 combined with T-1144
  Dose reduction: 16.35 fold
[5]; [13]
  EC50: 3.76 nM
[6]; T-20+T-1249+T-1144 3000:200:1
  Dose reduction: 37.21 fold
[6]; T-20 combined with T-1144
  Dose reduction: 4.17 fold
[6]; [13]
  EC50: 5.21 nM
[7]
  Dose reduction, six-helix bundle formation: ~2 fold
[8]
  activity relative to T-20: thousands fold more active than T-20

## enfuvirtide
[1]; T-20+T-1249+T-1144 7:5:1
  Dose reduction: 18.61 fold
[1]; T-20 combined with T-1144
  Dose reduction: 15.53 fold
[1]; T-20 combined with T-1249
  Dose reduction: 6.48 fold
[2]; Bal, T-20+T-1249+T-1144 2:1:1
  Dose reduction: 280.67 fold
[2]; Bal, T-20 combined with T-1144
  Dose reduction: 20.05 fold
[2]; Bal, T-20 combined with T-1249
  Dose reduction: 11.53 fold
[2]; [9]
  EC50: 8.42 nM
[2]; read-out: EC50 in mixture, Bal, T-20+T-1249+T-1144 2:1:1
  EC50: 0.03 nM
[2]; read-out: EC50 in mixture, Bal, T-20 combined with T-1144, ratios 2:1:1
  EC50: 0.42 nM
[2]; read-out: EC50 in mixture, Bal, T-20 combined with T-1249, ratios 2:1:1
  EC50: 0.73 nM
[3]; [10]
  Dose reduction: 71.04 fold
[3]; [11]
  Dose reduction: 5.11 fold
[3]; IIIB, T-20 combined with T-1249
  Dose reduction: 3.32 fold
[3]; [12]
  EC50: 50.4 nM
[3]; read-out: EC50 in mixture, IIIB, T-20+T-1249+T-1144 16:4:1
  EC50: 0.71 nM
[3]; read-out: EC50 in mixture, IIIB, T-20 combined with T-1144, ratios 16:4:1
  EC50: 9.88 nM
[3]; read-out: EC50 in mixture, IIIB, T-20 combined with T-1249, ratios 16:4:1
  EC50: 15.2 nM
[4]; T-20+T-1249+T-1144 80:1:1
  Dose reduction: 67.90 fold
[4]; T-20 combined with T-1144
  Dose reduction: 13.17 fold
[4]; T-20 combined with T-1249
  Dose reduction: 11.56 fold
[4]; [13]
  EC50: 2650 nM
[4]; [14]
  EC50: 39 nM
[4]; [15]
  EC50: 201 nM
[4]; [16]
  EC50: 229 nM
[5]; T-20+T-1249+T-1144 80:1:1
  Dose reduction: 37.76 fold
[5]; T-20 combined with T-1144
  Dose reduction: 16.78 fold
[5]; T-20 combined with T-1249
  Dose reduction: 23.03 fold
[5]; [13]
  EC50: 313 nM
[5]; [14]
  EC50: 8.29 nM
[5]; [15]
  EC50: 18.6 nM
[5]; [16]
  EC50: 13.6 nM
[6]; T-20+T-1249+T-1144 3000:200:1
  Dose reduction: 24.12 fold
[6]; T-20 combined with T-1144
  Dose reduction: 2.64 fold
[6]; T-20 combined with T-1249
  Dose reduction: 13.51 fold
[6]; [13]
  EC50: 9890 nM
[6]; read-out: EC50 in mixture, T-20+T-1249+T-1144 3000:200:1
  EC50: 410 nM
[6]; read-out: EC50 in mixture, T-20 combined with T-1144, ratios 3000:200:1
  EC50: 3750 nM
[6]; read-out: EC50 in mixture, T-20 combined with T-1249, ratios 3000:200:1
  EC50: 733 nM
